# Measurements from ChEMBL document CHEMBL1129127, “Potent and selective PKC inhibitory 5-membered ring analogs of balanol with replacement of the carboxamide moiety” (Bioorg Med Chem Lett, 1996).
# How the values were obtained:
# Homo sapiens = organism: Homo sapiens; assay: Inhibition of cellular activity by neutrophil assay; assay type: functional
# [1] = Inhibition of protein kinase A.
# [2] = biological target: Protein kinase C gamma type (Homo sapiens, UniProt P05129); assay: Inhibition of protein kinase C gamma
# [3] = biological target: Protein kinase C delta type (Homo sapiens, UniProt Q05655); assay: Inhibition of protein kinase C delta
# Chain of Protein kinase C delta type (Q05655 whole entry): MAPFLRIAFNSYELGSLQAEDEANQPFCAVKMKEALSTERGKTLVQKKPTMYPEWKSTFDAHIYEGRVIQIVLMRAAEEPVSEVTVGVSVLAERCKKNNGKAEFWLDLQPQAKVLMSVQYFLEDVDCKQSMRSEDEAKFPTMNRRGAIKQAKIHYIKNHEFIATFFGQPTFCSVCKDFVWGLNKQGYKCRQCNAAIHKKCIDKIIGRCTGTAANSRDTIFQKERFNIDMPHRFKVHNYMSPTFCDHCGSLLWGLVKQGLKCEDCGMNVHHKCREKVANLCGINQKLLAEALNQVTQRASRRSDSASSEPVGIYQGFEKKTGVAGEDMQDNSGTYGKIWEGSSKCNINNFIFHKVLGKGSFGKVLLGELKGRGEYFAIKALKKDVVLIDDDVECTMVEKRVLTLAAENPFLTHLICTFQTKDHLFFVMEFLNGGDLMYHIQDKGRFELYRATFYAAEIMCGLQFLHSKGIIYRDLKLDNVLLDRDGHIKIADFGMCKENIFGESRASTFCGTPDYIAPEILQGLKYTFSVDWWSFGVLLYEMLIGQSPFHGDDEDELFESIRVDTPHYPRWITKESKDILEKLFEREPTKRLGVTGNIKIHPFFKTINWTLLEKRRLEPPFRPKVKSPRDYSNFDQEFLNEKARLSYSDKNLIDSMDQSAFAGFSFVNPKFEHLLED
# [4] = biological target: T1, Protein kinase C epsilon type (Homo sapiens, UniProt Q02156); assay: Inhibition of protein kinase C epsilon
# T1 sequence (Q02156 whole entry): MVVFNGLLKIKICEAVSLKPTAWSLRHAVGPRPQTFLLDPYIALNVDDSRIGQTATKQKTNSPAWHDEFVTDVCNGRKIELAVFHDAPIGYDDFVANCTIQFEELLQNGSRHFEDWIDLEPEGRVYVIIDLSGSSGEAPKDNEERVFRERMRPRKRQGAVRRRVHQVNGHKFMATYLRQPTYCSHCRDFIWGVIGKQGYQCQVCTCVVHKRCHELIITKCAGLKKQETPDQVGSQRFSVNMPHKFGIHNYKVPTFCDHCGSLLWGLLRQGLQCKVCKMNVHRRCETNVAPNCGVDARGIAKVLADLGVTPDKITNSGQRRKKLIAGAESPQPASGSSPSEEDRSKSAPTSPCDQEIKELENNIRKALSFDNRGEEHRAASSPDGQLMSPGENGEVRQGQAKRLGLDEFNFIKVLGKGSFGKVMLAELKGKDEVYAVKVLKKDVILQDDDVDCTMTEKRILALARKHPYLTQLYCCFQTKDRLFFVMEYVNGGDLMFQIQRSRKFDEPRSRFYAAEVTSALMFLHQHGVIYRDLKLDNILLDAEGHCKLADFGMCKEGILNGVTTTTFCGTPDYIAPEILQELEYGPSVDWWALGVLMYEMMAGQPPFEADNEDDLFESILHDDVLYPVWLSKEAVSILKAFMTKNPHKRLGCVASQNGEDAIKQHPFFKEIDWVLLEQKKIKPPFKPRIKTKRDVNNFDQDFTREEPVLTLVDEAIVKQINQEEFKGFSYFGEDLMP
# [5] = biological target: Protein kinase C eta type (Homo sapiens, UniProt P24723); assay: Inhibition of protein kinase C eta
# Chain of Protein kinase C eta type (P24723 whole entry): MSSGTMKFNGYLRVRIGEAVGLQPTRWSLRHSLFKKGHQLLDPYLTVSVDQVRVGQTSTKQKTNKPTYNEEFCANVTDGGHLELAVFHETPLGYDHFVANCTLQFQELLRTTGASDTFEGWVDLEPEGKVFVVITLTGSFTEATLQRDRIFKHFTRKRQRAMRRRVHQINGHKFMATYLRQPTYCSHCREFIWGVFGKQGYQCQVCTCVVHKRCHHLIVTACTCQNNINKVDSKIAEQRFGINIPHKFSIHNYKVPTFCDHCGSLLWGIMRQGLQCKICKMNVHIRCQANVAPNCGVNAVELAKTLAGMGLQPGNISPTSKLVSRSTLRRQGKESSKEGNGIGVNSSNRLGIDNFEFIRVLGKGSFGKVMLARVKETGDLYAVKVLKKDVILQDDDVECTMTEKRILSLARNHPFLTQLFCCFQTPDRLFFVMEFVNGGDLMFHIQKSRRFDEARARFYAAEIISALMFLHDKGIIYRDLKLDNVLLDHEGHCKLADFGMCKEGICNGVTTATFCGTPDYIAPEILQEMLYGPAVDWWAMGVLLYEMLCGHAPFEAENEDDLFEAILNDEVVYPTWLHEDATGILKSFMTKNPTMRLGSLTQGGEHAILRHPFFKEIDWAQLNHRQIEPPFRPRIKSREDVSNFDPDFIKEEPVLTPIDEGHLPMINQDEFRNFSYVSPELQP
# [6] = biological target: Protein kinase C alpha type (Homo sapiens, UniProt P17252); assay: Inhibition of protein kinase C alpha
# [7] = biological target: T2, Protein kinase C beta type (Homo sapiens, UniProt P05771); assay: Inhibition of protein kinase C beta I
# T2 sequence (P05771 whole entry): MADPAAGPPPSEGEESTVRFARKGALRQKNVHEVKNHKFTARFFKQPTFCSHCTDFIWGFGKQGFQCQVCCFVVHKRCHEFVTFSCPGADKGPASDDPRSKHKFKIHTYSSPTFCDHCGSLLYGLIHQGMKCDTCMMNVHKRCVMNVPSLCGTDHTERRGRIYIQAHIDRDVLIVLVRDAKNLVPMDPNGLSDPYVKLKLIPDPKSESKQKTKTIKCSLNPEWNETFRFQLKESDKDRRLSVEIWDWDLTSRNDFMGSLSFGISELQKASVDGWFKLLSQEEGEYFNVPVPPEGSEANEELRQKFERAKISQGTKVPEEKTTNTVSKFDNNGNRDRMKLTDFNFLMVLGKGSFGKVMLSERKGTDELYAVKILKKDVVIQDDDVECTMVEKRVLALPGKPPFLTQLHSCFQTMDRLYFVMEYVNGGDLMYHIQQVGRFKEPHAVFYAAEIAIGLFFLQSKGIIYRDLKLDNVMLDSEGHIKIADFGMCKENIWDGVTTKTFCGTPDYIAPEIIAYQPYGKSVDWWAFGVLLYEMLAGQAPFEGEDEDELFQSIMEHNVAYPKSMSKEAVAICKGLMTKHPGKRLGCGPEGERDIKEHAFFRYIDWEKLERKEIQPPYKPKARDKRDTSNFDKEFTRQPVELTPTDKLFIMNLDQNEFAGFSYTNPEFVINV
# [8] = biological target: T2, Protein kinase C beta type; assay: Inhibition of protein kinase C beta II
IC50 (Homo sapiens; Homo sapiens) [µM],IC50 [1] [µM],IC50 [2] [µM],IC50 [3] [µM],IC50 [5] [µM],also measured,SMILES
> 10,0.06,,,,,O=C(NC1CNCCCC1OC(=O)c1cc(O)c(C(=O)c2c(O)cccc2C(=O)O)c(O)c1)c1ccc(O)cc1 (racemic)
,50,,,,,O=C(OC1CCCC1Oc1ccc(O)cc1)c1cc(O)c(C(=O)c2c(O)cccc2C(=O)O)c(O)c1 (stereo not drawn)
,,,,,IC50 (Homo sapiens): 10 µM,O=C(OC1CCCC1Cc1ccc(O)cc1)c1cc(O)c(C(=O)c2c(O)cccc2C(=O)O)c(O)c1 (stereo in doubt; syn)
> 10,0.32,0.04,0.005,0.02,IC50 [4]: 1.8 µM,O=C(OC1CNCC1Cc1ccc(O)cc1)c1cc(O)c(C(=O)c2c(O)cccc2C(=O)O)c(O)c1 (stereo not drawn)
,> 50,,,,IC50 (Homo sapiens): 3.1 µM,O=C(OC1CCCC1Cc1ccc(O)cc1)c1cc(O)c(C(=O)c2c(O)cccc2C(=O)O)c(O)c1 (stereo in doubt; anti)
> 10,0.07,0.012,0.005,0.004,IC50 [6]: 0.022 µM; IC50 [4]: 0.01 µM; IC50 [7]: 0.01 µM; IC50 [8]: 0.033 µM,O=C(NC1CNCC1OC(=O)c1cc(O)c(C(=O)c2c(O)cccc2C(=O)O)c(O)c1)c1ccc(O)cc1 (stereo not drawn)
> 10,,,0.001,0.001,,O=C(NC1CCCC1OC(=O)c1cc(O)c(C(=O)c2c(O)cccc2C(=O)O)c(O)c1)c1ccc(O)cc1 (stereo not drawn)
,0.04,0.01,0.016,0.003,IC50 [6]: 0.03 µM; IC50 [7]: 0.01 µM; IC50 [8]: 0.01 µM,"O=C(NC1CNCCCC1OC(=O)c1cc(O)c(C(=O)c2c(O)cccc2C(=O)O)c(O)c1)c1ccc(O)cc1 (single isomer, unassigned; (-))"
,> 50,,,,,COC(=O)c1cccc(O)c1C(=O)c1c(O)cc(C(=O)OC2CCCC2Cc2ccc(O)cc2)cc1O (stereo not drawn)
,,,,0.05,,COC(=O)c1cccc(O)c1C(=O)c1c(O)cc(C(=O)OC2CNCC2Cc2ccc(O)cc2)cc1O (stereo not drawn)
